Source: patent US20140094413A1, “HEPATOCYTE GROWTH FACTOR (HGF) MIMICS AS THERAPEUTIC AGENTS” (WASHINGTON STATE UNIVERSITY, priority 2012, published 2014)
Several values for one entry are separate records, joined by “and”; a condition that tells them apart may be missing. Equal entries are not always repeated. Entries after “also recorded” stand apart in the source; their conditions may differ. Where a SMILES comes first, the peptide text is derived from it. [ ]: non-standard residue; d: D form. The star is where a group is joined. Hexanoyl = CCCCCC(=O)*; Ahx = NCCCCCC(=O)O

Legend:
[1] = system: scopolamine treated rats; assay: Morris water maze, scopolamine amnesia model; settings: scopolamine ICV
Method: Male Sprague-Dawley rats (Taconic derived) weighing 390-450 g were maintained with free access to water and food (Harland Tekland F6 rodent diet, Madison, Wis.) except the night prior to surgery when food was removed. Each animal was anesthetized with Ketamine hydrochloride plus Xylazine (100 and 2 mg/kg im. respectively; Phoenix Scientific; St. Joseph, Mo., and Moby; Shawnee, Kans.). […] The guide cannula measured 2.5 cm in overall length and was prepared with a heat bulge placed 2.5 mm from its beveled tip, thus acting as a stop to control the depth of penetration. Once in position, the cannula was secured to the skull with two stainless-steel screws and dental cement. Post-operatively the animals were housed individually in an American Accreditation for Laboratory Animal Care-approved vivarium maintained at 22±1° C. on a 12-h alternating light/dark cycle initiated at 06:00 h. All animals were hand gentled for 5 min per day during the 5-6 days of post-surgical recovery. Histological verification of cannula placement was accomplished by the injection of 5 μl fast-green dye via the guide cannula following the completion of behavioral testing.
A black circular platform (diameter: 12 cm; height: 24 cm) was placed 30 cm from the wall and submerged 2 cm below the water surface. The maze was operationally sectioned into four equal quadrants designated NW, NE, SW, and SE. For each rat the location of the platform was randomly assigned to one of the quadrants and remained fixed throughout the duration of training. Entry points were at the quadrant corners (i.e. N, S, E, and W) and were pseudo-randomly assigned such that each trial began at a different entry point than the preceding trial. Three of the four testing room walls were covered with extra-maze spatial cues consisting of different shapes (circles, squares, triangles) and colors. The swimming path of the animals was recorded using a computerized video tracking system (Chromotrack; San Diego Instruments, CA). […] Swim speed was determined from these values.
Each member of the treatment groups in the scopolamine studies received an icy injection of scopolamine hydrobromide (70 nmol in 2 μl aCSF over a duration of 20 s) 30 min prior to testing followed by Dihexa 10 min prior to testing. Control groups received scopolamine or aCSF 20 min prior to testing followed by aCSF 10 min prior testing. […] The rats in the aged rat study on received Dihexa of aCSF (control group). Briefly, acquisition trials were conducted on 8 consecutive days with 5 trials/day. On the first day of training the animal was placed on the platform for 30 s prior to the first trial. Trials commenced with the placement of the rat facing the wall of the maze at one of the assigned entry points. […] Once the animal located the platform it was permitted a 30 s rest period on the platform. […] The next trial commenced immediately following the rest period.
Following day 8 of acquisition training, one additional trial was conducted during which the platform was removed (probe trial). […] Total time spent within the target quadrant where the platform had been located during acquisition and the number of crossings of that quadrant was recorded.

[2] = Dihexa plasma levels after IV infusion; assay type: in vivo, rat
Method: FIG. 46. Dihexa plasma levels after intravascular (IV) infusion. Dihexa was administered to adult male Sprague Dawley rats at 10 mg/kg. Plasma sample were collected and analyzed by HPLC-MS. Plasma data were modeled by non-compartmental analysis using WinNonlin® software.

[3] = system: 6-OHDA lesioned rats; assay: Unilateral 6-OHDA substantia nigra lesion model; assay type: in vivo, rat
Method: FIG. 41. Dihexa restores performance in the rope hang test. Two weeks after producing a unilateral lesion with 6-OHDA in the substantia nigra, rats were treated with either 0.5 mg/kg of Dihexa or equivalent volumes of the vehicle ip.
FIG. 42A-C. Dihexa restored normal walking in the gait analysis test. Two weeks after producing a unilateral lesion with 6-OHDA in the substantia nigra, rats were treated with either 0.5 mg/kg of Dihexa or equivalent volumes of the vehicle ip. […] A, animal foot prints; B, left stride length; C, right stride length. Note that the dragging of the left hind leg observed in the untreated lesioned rats was absent from the treated group.
FIG. 43. Dihexa restores tyrosine hyroxlase staining, which is indicative of the presence of dopaminiergic neurons in the substantia nigra (SN). Two weeks after the induction of an unilateral 6-OHDA lesion, rats were treated with either 0.5 mg/kg Dihexa or an equivalent volume of vehicle ip. for 34 days.

[4] = Phase I metabolism of Dihexa; assay type: in vitro ADME
[5] = system: rats; assay: Morris water maze with i.c.v. Dihexa and HGF antagonist Hinge; assay type: in vivo, rat; settings: scopolamine treated rats
[6] = system: Dissociated hippocampal neurons; assay: Neuroprotection from oxidative stress (H2O2); assay type: cell-based; settings: 100 μM H2O2 24 hrs +/−HGF 5 ng/ml; Dihexa 10^−10 M and 10^−8M
Method: FIG. 40. […] Dissociated hippocampal neurons were treated with 100 μM H2O2 for 24 hrs+/−HGF at sub-threshold concentrations 5 ng/ml and or Dihexa at 2 different concentrations 10^−10 M and 10^−8M. (*p<0.05,**p<0.01).

[7] = system: MDCK cells; assay: Augmentation of HGF-dependent cell scattering in MDCK cells; assay type: cell-based, canine; settings: with HGF, Dihexa 10^−10 M to 10^−14M, four days
Method: (§1) augmentation of HGF-dependent c-Met phosphorylation in HEK293 cells, or 2) augmentation of HGF-dependent cell scattering in MDCK cells. All the compounds in Family one were tested using the c-Met phosphorylation assay. […]
MDCK cells were grown to 100% confluency on the coverslips in six-well plates and washed twice with PBS. The confluent coverslips were then aseptically transferred to new six well plates containing 900 μl serum free DMEM. Norleual, Hinge peptide, and/or HGF (2.5 ng/ml) were added to appropriate wells. Control wells received PBS vehicle. […] Media was removed and cells were fixed with methanol. Cells were stained with Diff-Quik Wright-Giemsa (Dade-Behring, Newark, Del.) and digital images were taken. Coverslips were removed with forceps and more digital images were captured. Pixel quantification of images was achieved using Image J and statistics were performed using Prism 5 and InStat v.3.05.
MDCK cells were grown to 100% confluency on the coverslips in six-well plates and washed twice with PBS. The confluent coverslips were then aseptically transferred to new six well plates containing 900 μl serum free DMEM. Norleual, Hinge peptide, and/or HGF (20 ng/ml) were added to appropriate wells. Control wells received PBS vehicle. […] Pixel quantification of images was achieved using Image J and statistics were performed using Prism 5 and InStat v.3.05.

[8] = Toxicity observation during Dihexa studies; assay type: in vivo; settings: studies lasting as long as 96 days
[9] = system: c-Met; assay: Augmentation of HGF-dependent c-Met phosphorylation in HEK293 cells; assay type: cell-based, human; settings: HEK 293 cells treated with HGF+/−Dihexa
Method: as §1
Human embryonic kidney cells 293 (HEK293), Madin Darby canine kidney cells (MDCK), and B16F10 murine melanoma cells were grown in DMEM, 10% fetal bovine serum (FBS). Cells were grown to 90-100% confluency before use. For most but not all studies HEK and MDCK cells were serum starved for 24 hours prior to the initiation of drug treatment.
HEK293 cells were seeded in 6 well tissue culture plates and grown to 95% confluency in DMEM containing 10% FBS. The cells were serum deprived for 24 hours prior to the treatment to reduce the basal levels of phospho-Met. […] The lysate was clarified by centrifugation at 15,000 g for 15 minutes, protein concentrations were determined using the BCA total protein assay, and then appropriate volumes of the lysates were diluted with 2× reducing Laemmli buffer and heated for ten minutes at 95° C. […] Proteins were visualized using the Supersignal West Pico Chemiluminescent Substrate system (Pierce, Fenton, Mo.) and molecular weights determined by comparison to protein ladders (BenchMark, Invitrogen; and Kaleidoscope, BioRad). Images were digitized and analyzed using a UVP phosphoimager.

[10] = 0.5 mg/kg ip, started two weeks after lesion

Q: What does the source list for `CCCCCC(=O)N[C@@H](Cc1ccc(O)cc1)C(=O)N[C@H](C(=O)NCCCCCC(N)=O)[C@@H](C)CC` [Dihexa, N-hexanoic-Tyr-Ile-(6)-aminohexanoic amide] (Hexanoyl-Tyr-Ile-[Ahx]-NH2)?
A: Water maze latency to find the pedestal: reversal of scopolamine deficits ([1]; Dihexa ICV high dose (100 μmoles, 100 pmoles elsewhere in the source), 5 trials/day, 8 days): reversed scopolamine-dependent learning deficits; also recorded: completely overcome the scopolamine deficits; Water maze latency to find the pedestal: reversal of scopolamine deficits ([1]; Dihexa ICV low dose 10 μmoles): not 10 μmoles reversed scopolamine-dependent learning deficits; Water maze latency to find the pedestal: reversal of scopolamine deficits ([1]; Dihexa IP 0.5 mg/kg (high dose)): completely reverse the deficit seen with scopolamine; Water maze latency to find the pedestal: reversal of scopolamine deficits ([1]; Dihexa orally 2 mg/kg/day (high dose), 2 mg/kg/day): no different than controls; also recorded: completely overcome the scopolamine deficits; also recorded: completely reverse the deficit seen with scopolamine; also recorded: completely reverse the deficit produced by scopolamine; Elimination (circulating) half-life t1/2 ([2]; IV 10 mg/kg, adult male Sprague Dawley rats, non-compartmental analysis, 10 mg/kg): > 12 days and 12.68 days; Excretion ([2]; urine): excreted intact in the urine; Tyrosine hydroxylase staining in the substantia nigra ([3]; 0.5 mg/kg ip for 34 days / six weeks): dramatic restoration of tyrosine hydroxylase (TH) staining; also recorded: completely restored the tyrosine hydroxylase staining in the SN; Gait analysis, stride length [3, 10]: recovery of normal motor function; also recorded: completely restored the normal stride length; Rope hang test performance [3, 10]: completely restores performance in the rope hang test; also recorded: completely restored the performance of the treated animals on the rope hang test; Recovery of SN TH staining ([3]; three months of Dihexa treatment): ~100%; Phase I metabolism [4]: resistant to phase I metabolism; also recorded: undergoes little phase I metabolism; Mean latency to find the pedestal, day one [5]: 115.2 s; Mean latency to find the pedestal, final day (day 8) [5]: 62.3 s; Mean latency to find the pedestal, fourth day [5]: 63.0 s; Protection of neurons from oxidative stress [6]: protects neurons from oxidative stress; HGF-dependent MDCK cell scattering [7]: stimulate MDCK cell scattering; also recorded: markedly stimulates cell scattering even at picomolar affinities; HGF-dependent MDCK cell scattering ([7]; listed as N-hexanoyl-Tyr-Ile-(6) aminohexamide): spectacularly augment HGF-dependent MDCK cell scattering; Overt toxicity [8]: no overt toxicity; Effect on HGF activation (phosphorylation) of c-Met [9]: dramatically augment the ability of HGF to activate c-Met; also recorded: work synergistically to activate c-Met; also recorded: enhances the activity of HGF shifting its concentration curve to the left
